Assay results reported in patent US20240408106A1, “BI-FUNCTIONAL COMPOUNDS AND METHODS FOR TARGETED UBIQUITINATION OF ANDROGEN RECEPTOR” (MONTELINO THERAPEUTICS, INC., priority 2021, published 2024).

These compounds were tested on human prostate cancer cell line, 22Rv1-Enz^R (assay: 22Rv1-Enz^R cell proliferation assay). Conditions: half maximal growth inhibition constant, 22Rv1-Enz^R cells, 6-day culture with cell media changed every 24 hours, read-out: 22Rv1-Enz^R proliferation assay GIC50.
Type: cell-based
Procedure: The human prostate cancer cell line, 22Rv1 has been reported to express a high level of AR-V7. According to one procedure, 22Rv1 is seeded at 50,000 cells/well on a 24-well plate in quadruplicate and treated with test compounds in concentrations ranging up to 20 μM for four days. Standard culture media is RPMI-1640 supplemented with 10% fetal bovine serum. The test compound initially is dissolved in DMSO at 50 mM. This stock solution is then diluted as needed for the indicated concentrations. At the end of the four-day period, cells are harvested using 1% trypsin and counted using an automated cell counter.
Selected compounds may be tested in the human prostate cancer cell line, 22Rv1-Enz^R, as described in Geun Taek Lee et al., Molecular Cancer Therapeutics, 20:490-9 (2021). These procedures are similar to that described in Experimental Example 1, above, except that the assay conditions are a 6-day culture with cell media changed every 24 hours.
In the following Table (half maximal growth inhibition constant, GIC50): (+)-GIC50<200 μM; (++)-GIC50<100 μM; (+++)-GIC50<10 μM.

IC50 [µM]	Structure (SMILES)
< 10	Cc1ncsc1-c1ccc([C@H](C)NC(=O)[C@@H]2C[C@@H](O)CN2C(=O)[C@@H](NC(=O)CCCCn2nncc2CCOc2c(-c3csc(N4CCOCC4)n3)ccc(F)c2F)C(C)(C)C)cc1 [Example 4, (2S,4R)-1-((S)-2-(5-(5-(2-(2,3-difluoro-6-(2-morpholinothiazol-4-yl)phenoxy)ethyl)-1H-1,2,3-triazol-1-yl)pentanamido)-3,3-dimethylbutanoyl)-4-hydroxy-N-((S)-1-(4-(4-methylthiazol-5-yl)phenyl)ethyl)pyrrolidine-2-carboxamide]
< 200	COc1cc(C(=O)NCC2CCN(C(=O)COc3c(-c4csc(N5CCOCC5)n4)ccc(F)c3F)CC2)ccc1NC(=O)[C@@H]1N[C@@H](CC(C)(C)C)[C@](C#N)(c2ccc(Cl)cc2F)[C@H]1c1cccc(Cl)c1F [Example 7, (2R,3S,4R,5S)-3-(3-chloro-2-fluorophenyl)-4-(4-chloro-2-fluorophenyl)-4-cyano-N-(4-(((1-(2-(2,3-difluoro-6-(2-morpholinothiazol-4-yl)phenoxy)acetyl)piperidin-4-yl)methyl)carbamoyl)-2-methoxyphenyl)-5-neopentylpyrrolidine-2-carboxamide]
< 100	COc1cc(C(=O)NCCN2CCN(C(=O)COc3c(-c4csc(N5CCOCC5)n4)ccc(F)c3F)CC2)ccc1NC(=O)[C@@H]1N[C@@H](CC(C)(C)C)[C@](C#N)(c2ccc(Cl)cc2F)[C@H]1c1cccc(Cl)c1F [Example 8, (2R,3S,4R,5S)-3-(3-chloro-2-fluorophenyl)-4-(4-chloro-2-fluorophenyl)-4-cyano-N-(4-((2-(4-(2-(2,3-difluoro-6-(2-morpholinothiazol-4-yl)phenoxy)acetyl)piperazin-1-yl)ethyl)carbamoyl)-2-methoxyphenyl)-5-neopentylpyrrolidine-2-carboxamide]
< 200	COc1cc(C(=O)N2CCC(NC(=O)COc3c(-c4csc(N5CCOCC5)n4)ccc(F)c3F)CC2)ccc1NC(=O)[C@@H]1N[C@@H](CC(C)(C)C)[C@](C#N)(c2ccc(Cl)cc2F)[C@H]1c1cccc(Cl)c1F [Example 9, (2R,3S,4R,5S)-3-(3-chloro-2-fluorophenyl)-4-(4-chloro-2-fluorophenyl)-4-cyano-N-(4-(4-(2-(2,3-difluoro-6-(2-morpholinothiazol-4-yl)phenoxy)acetamido)piperidine-1-carbonyl)-2-methoxyphenyl)-5-neopentylpyrrolidine-2-carboxamide]
< 100	COc1cc(C(=O)NCCOCCn2cc(CCOc3c(-c4csc(N5CCOCC5)n4)ccc(F)c3F)nn2)ccc1NC(=O)[C@@H]1N[C@@H](CC(C)(C)C)[C@](C#N)(c2ccc(Cl)cc2F)[C@H]1c1cccc(Cl)c1F [Example 10, (2R,3S,4R,5S)-3-(3-chloro-2-fluorophenyl)-4-(4-chloro-2-fluorophenyl)-4-cyano-N-(4-((2-(2-(4-(2-(2,3-difluoro-6-(2-morpholinothiazol-4-yl)phenoxy)ethyl)-1H-1,2,3-triazol-1-yl)ethoxy)ethyl)carbamoyl)-2-methoxyphenyl)-5-neopentylpyrrolidine-2-carboxamide]

Continued, compound first:

Structure (SMILES)	IC50 [µM]
Cc1ncsc1-c1ccc([C@H](C)NC(=O)[C@@H]2C[C@@H](O)CN2C(=O)[C@@H](NC(=O)CN2CCN(C(=O)COc3c(-c4csc(N5CCOCC5)n4)ccc(F)c3F)CC2)C(C)(C)C)cc1 [Example 1, (2S,4R)-1-((S)-2-(2-(4-(2-(2,3-difluoro-6-(2-morpholinothiazol-4-yl)phenoxy)acetyl)piperazin-1-yl)acetamido)-3,3-dimethylbutanoyl)-4-hydroxy-N-((S)-1-(4-(4-methylthiazol-5-yl)phenyl)ethyl)pyrrolidine-2-carboxamide]	< 10
Cc1ncsc1-c1ccc([C@H](C)NC(=O)[C@@H]2C[C@@H](O)CN2C(=O)[C@@H](NC(=O)CCN2CCN(C(=O)COc3c(-c4csc(N5CCOCC5)n4)ccc(F)c3F)CC2)C(C)(C)C)cc1 [Example 2, (2S,4R)-1-((S)-2-(3-(4-(2-(2,3-difluoro-6-(2-morpholinothiazol-4-yl)phenoxy)acetyl)piperazin-1-yl)propanamido)-3,3-dimethylbutanoyl)-4-hydroxy-N-((S)-1-(4-(4-methylthiazol-5-yl)phenyl)ethyl) pyrrolidine-2-carboxamide]	< 100
Cc1ncsc1-c1ccc([C@H](C)NC(=O)[C@@H]2C[C@@H](O)CN2C(=O)[C@@H](NC(=O)CCC(=O)N2CCCC(NC(=O)COc3c(-c4csc(N5CCOCC5)n4)ccc(F)c3F)C2)C(C)(C)C)cc1 (stereo partly drawn) [Example 3, (2S,4R)-1-((2S)-2-(4-(3-(2-(2,3-difluoro-6-(2-morpholinothiazol-4-yl)phenoxy)acetamido)piperidin-1-yl)-4-oxobutanamido)-3,3-dimethylbutanoyl)-4-hydroxy-N-((S)-1-(4-(4-methylthiazol-5-yl)phenyl)ethyl)pyrrolidine-2-carboxamide]	< 10
Cc1ncsc1-c1ccc([C@H](C)NC(=O)[C@@H]2C[C@@H](O)CN2C(=O)[C@@H](NC(=O)CCC(=O)N[C@H]2C[C@H](Oc3c(-c4csc(N5CCOCC5)n4)ccc(F)c3F)C2)C(C)(C)C)cc1 [Example 5, N1-((1r,3S)-3-(2,3-difluoro-6-(2-morpholinothiazol-4-yl)phenoxy)cyclobutyl)-N4-((S)-1-((2S,4R)-4-hydroxy-2-(((S)-1-(4-(4-methylthiazol-5-yl)phenyl)ethyl)carbamoyl)pyrrolidin-1-yl)-3,3-dimethyl-1-oxobutan-2-yl)succinamide]	< 100
